target: T1, pig brain prolyl oligopeptidase (Sus scrofa, UniProt P23687); assay: Inhibition of prolyl oligopeptidase activity of pig brain (Suc-Gly-Pro-AMC, fluorometric); type: biochemical; conditions: pig brain homogenate supernatant, 30° C., pH 7.0
T1 construct: The brains were homogenized with a glass-teflon homogenisator; from tissue; host or cells: pig brain (excluding cerebellum and most of the brain stem), 10000 g supernatant of the homogenate
Description: The whole pig brains, excluding cerebellum and most of the brain stem, of three pigs were placed in liquid nitrogen within 30 min from killing and stored at −80° C. until homogenized. The brains were homogenized with a glass-teflon homogenisator in 3 volumes (w/v) of ice-cold 0.1 M sodium-potassium phosphate buffer (pH 7.0) and the homogenates were centrifuged for 20 min at 4° C. at 10000 g. The supernatants were collected, pooled and stored in small aliquots at −80° C. until used. The supernatant was thawn in ice just before activity assay and diluted in a ratio 1:2 with homogenisation buffer (=enzyme preparation).
In the microplate assay procedure, 10 μl of enzyme preparation was preincubated with 460 μl of 0.1 M sodium-potassium phosphate buffer (pH 7.0) and 5 μl of a solution of novel compound dissolved in DMSO and diluted with 0.1 M sodium-potassium phosphate buffer at 30° C. for 30 min. The controls contained 10 μl enzyme preparation and 465 μl of 0.1 M sodium-potassium phosphate buffer (pH 7.0). The reaction was initiated by adding 25 μl of 4 mM Suc-Gly-Pro-AMC (AMC: 7-amido-4-methylcoumarin) dissolved in 0.1 M sodium-potassium phosphate buffer (pH 7.0), and the mixture was incubated at 30° C. for 60 min. The reaction was terminated by adding 500 μl of 1 M sodium acetate buffer (pH 4.2).
Formation of 7-amido-4-methylcoumarin was determined fluorometrically with microplate fluorescence reader (excitation at 360 nm and emission at 460 nm). The final concentration of novel compounds in the assay mixture varied from 10^−12 M to 10^−4 M.
The prolyl oligopeptidase activity was calculated with the following formula in the presence of various concentrations of novel compounds. To reveal the inhibitory potency of the novel compound, activities (% of control) were plotted against the log concentration of the compound, and the IC50 value was determined by non-linear regression utilizing GraphPad Prism software.
Activity (% of control)=a/b×100, where • a=flourescence intensity in the presence of a novel compound • […] a novel compound (control)

T1 sequence (P23687 whole entry): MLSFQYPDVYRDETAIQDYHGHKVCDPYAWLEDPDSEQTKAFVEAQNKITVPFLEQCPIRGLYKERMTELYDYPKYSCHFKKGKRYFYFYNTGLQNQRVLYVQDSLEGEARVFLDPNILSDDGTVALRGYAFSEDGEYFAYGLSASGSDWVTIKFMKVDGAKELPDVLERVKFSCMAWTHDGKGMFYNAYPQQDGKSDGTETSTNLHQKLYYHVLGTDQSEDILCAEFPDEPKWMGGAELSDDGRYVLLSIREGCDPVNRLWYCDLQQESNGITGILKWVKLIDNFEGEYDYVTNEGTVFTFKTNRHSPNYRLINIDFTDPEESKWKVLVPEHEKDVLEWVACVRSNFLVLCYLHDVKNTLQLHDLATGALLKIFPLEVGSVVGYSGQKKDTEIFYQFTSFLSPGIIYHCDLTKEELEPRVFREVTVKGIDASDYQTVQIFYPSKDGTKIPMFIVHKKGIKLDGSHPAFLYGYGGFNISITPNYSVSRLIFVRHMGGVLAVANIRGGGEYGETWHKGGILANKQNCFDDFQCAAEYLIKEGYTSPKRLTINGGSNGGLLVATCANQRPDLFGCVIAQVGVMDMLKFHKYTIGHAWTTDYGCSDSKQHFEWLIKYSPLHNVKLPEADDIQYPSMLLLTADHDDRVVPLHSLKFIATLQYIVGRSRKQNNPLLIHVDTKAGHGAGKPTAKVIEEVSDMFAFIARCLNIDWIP

IC50 [nM]	SMILES
26	O=C([C@@H]1CCCN1C(=O)c1cccc(C(=O)N2CCC[C@H]2C(=O)N2CCCC2)c1)N1CCCC1 [Example 11, Isophthalic acid di-(L-prolyl-pyrrolidine)amide]
0.8	N#C[C@@H]1CCCN1C(=O)[C@@H]1CCCN1C(=O)CCC(=O)N1CCCCCC1 [Example 18, Succinic acid hexamethyleneimine L-prolyl-2(S)-cyanopyrrolidine amide]
0.8	N#C[C@@H]1CCCN1C(=O)[C@@H]1CCCN1C(=O)CCC(=O)N1CCC[C@H]1C(=O)N1CCC[C@H]1C#N [Example 21, Succinic acid di-(L-prolyl-2(S)-cyanopyrrolidine)amide]
87	C[C@H](NC(=O)c1cccc(C(=O)N[C@@H](C)C(=O)N2CCCC2)c1)C(=O)N1CCCC1 [Example 46, Isophthalic acid di-(L-alanyl-pyrrolidine)amide]
28	O=C(CCCC(=O)N1CCC[C@H]1C(=O)N1CCCC1)N1CCCCCC1 [Example 48, Glutaric acid hexamethyleneimine L-prolyl-pyrrolidine amide]

The remaining lines, values behind:

SMILES	IC50 [nM]
O=C(CO)[C@@H]1CCCN1C(=O)[C@@H]1CCCN1C(=O)c1cccc(C(=O)N2CCC[C@H]2C(=O)N2CCCC2)c1 [Example 22, Isophthalic acid L-prolyl-2(S)-(hydroxyacetyl)pyrrolidine L-prolyl-pyrrolidine amide]	0.4
O=C(C1CCCC1)[C@@H]1CCCN1C(=O)c1cccc(C(=O)N2CCC[C@H]2C(=O)C2CCCC2)c1 [Example 41, Isophthalic acid di-(2(S)-(cyclopentanecarbonyl)pyrrolidine)amide]	78
CSCC[C@H](NC(=O)c1cccc(C(=O)N[C@@H](CCSC)C(=O)N2CCCC2)c1)C(=O)N1CCCC1 [Example 47, Isophthalic acid di-(L-methionyl-pyrrolidine)amide]	110
O=C(NC(Cc1ccccc1)C(=O)N1CCCC1)c1cccc(C(=O)NC(Cc2ccccc2)C(=O)N2CCCC2)c1 [Example 50, Isophtalic acid di-(L-phenylalanyl-pyrrolidine)amide]	79

Source: patent US7173024B2, “Compounds having prolyl oligopeptidase inhibitory activity, methods for their preparation and their use” (Orion Corporation, priority 2001, dated 2007)
